Laboratory results taken from ChEMBL document CHEMBL5532655, “Discovery of (R)-4-(8-methoxy-2-methyl-1-(1-phenylethy)-1H-imidazo[4,5-c]quinnolin-7-yl)-3,5-dimethylisoxazole as a potent and selective BET inhibitor for treatment of acute myeloid leukemia (AML) guided by FEP calculation” (Eur J Med Chem, 2024).

Experiments:
Test in all cases: cells
MV4-11 = settings: Homo sapiens, MV4-11, 48 h
Description: Antiproliferative activity against human MV4-11 cells assessed as inhibition of cell growth incubated for 48 hrs by MTT assay

Jurkat = settings: Homo sapiens, 48 h
Description: Antiproliferative activity against human Jurkat cells assessed as inhibition of cell growth incubated for 48 hrs by MTT assay

MOLM-13 = settings: Homo sapiens, MOLM-13, 48 h
Description: Antiproliferative activity against human MOLM-13 cells assessed as inhibition of cell growth incubated for 48 hrs by MTT assay

MM1.S = settings: Homo sapiens, 48 h
Description: Antiproliferative activity against human MM1.S cells assessed as inhibition of cell growth incubated for 48 hrs by MTT assay

Compound | IC50 (MV4-11) [µM] | IC50 (Jurkat) [µM] | IC50 (MOLM-13) [µM] | IC50 (MM1.S) [µM]
COc1cc2c(cc1-c1c(C)n[nH]c1C)ncc1nc(C)n([C@H](C)c3ccccn3)c12 | 10.9 | > 20 | 0.44 | > 20
COc1ccncc1-c1cc2ncc3nc(C)n([C@@H](C)c4ccccc4)c3c2cc1OC | > 20 | > 20 | 10.9 | 7.4
COc1cc2c(cc1-c1c(C)n[nH]c1C)ncc1nc(C)n([C@@H](C)c3ccccc3)c12 | 0.53 | 16.5 | 13.1 | 8.92
COc1cc2c(cc1-c1cnn(C)c1)ncc1nc(C)n([C@H](C)c3ccccn3)c12 | 2.6 | 9.87 | 3.55 | 5.84
COc1cc2c(cc1-c1ccc(N)cc1)ncc1nc(C)n([C@@H](C)c3ccccc3)c12 | 3.25 | 11.1 | 7.16 | 4.04
COc1cc2c(cc1-c1ccc(O)cc1)ncc1nc(C)n([C@@H](C)c3ccccc3)c12 | 2.25 | > 20 | 8.42 | 5.79
COc1ccc(-c2cc3ncc4nc(C)n([C@@H](C)c5ccccc5)c4c3cc2OC)cc1CO | 18 | > 20 | > 20 | 13.5
COc1cc2c(cc1-c1ccc(F)cc1)ncc1nc(C)n([C@@H](C)c3ccccc3)c12 | 2.85 | > 20 | 2.49 | 9.48
COc1cc2c(cc1-c1ccc(C(C)=O)cc1)ncc1nc(C)n([C@@H](C)c3ccccc3)c12 | 12.5 | 12.9 | 4.73 | 11.6
COc1cc2c(cc1-c1ccc(C)cc1)ncc1nc(C)n([C@@H](C)c3ccccc3)c12 | 8.3 | > 20 | 4.99 | 6.02
COc1cc2c(cc1-c1ccc(C(F)(F)F)cc1)ncc1nc(C)n([C@@H](C)c3ccccc3)c12 | 5 | 16.4 | 0.91 | 11.9
COc1cc2c(cc1-c1c(C)noc1C)ncc1nc(C)n(-c3ccc(CC#N)cc3)c12 | 1.05 | > 20 | 10.1 | 7.06
COc1cc2c(cc1-c1c(C)noc1C)ncc1nc(C)n([C@@H](C)c3ccccc3)c12 | 2.02 | 16.6 | 12.5 | 11.2
COc1cc2c(cc1-c1cnn(C)c1)ncc1nc(C)n([C@@H](C)c3ccccc3)c12 | 0.62 | 2.14 | > 20 | 11.5
COc1cc2c(cc1-c1cc(C)cc(C)c1)ncc1nc(C)n([C@@H](C)c3ccccc3)c12 | 6.24 | > 20 | > 20 | 5.92
COc1cc2c(cc1-c1c(C)noc1C)ncc1nc(C)n([C@H](C)c3ccccn3)c12 | 1.29 | 16.1 | 6.4 | 3.55
COc1cc2c(cc1-c1ccc3nc[nH]c3c1)ncc1nc(C)n([C@@H](C)c3ccccc3)c12 | 10.4 | > 20 | 19.1 | 8.69
COc1cc2c(cc1-c1cnn(C)c1)ncc1nc(C)n([C@H](C)c3ccccc3)c12 | 6.83 | > 20 | > 20 | 6.9
COc1cc2c(cc1-c1c(C)noc1C)ncc1nc(C)n(C3CCOCC3)c12 | 1.02 | > 20 | 5.15 | 1.85
COc1cc2c(cc1-c1ccc(N)nc1)ncc1nc(C)n([C@@H](C)c3ccccc3)c12 | 1.4 | 15.2 | 4.74 | 5.69
COc1cc2c(cc1-c1ccc(C#N)cc1)ncc1nc(C)n([C@@H](C)c3ccccc3)c12 | 5 | 4.53 | 10.1 | 9.09
COc1cc2c(cc1-c1cnc(N)nc1)ncc1nc(C)n([C@@H](C)c3ccccc3)c12 | > 20 | > 20 | > 20 | 9.23

Further lines, results first:

IC50 (MV4-11) [µM] | IC50 (Jurkat) [µM] | IC50 (MOLM-13) [µM] | IC50 (MM1.S) [µM] | Compound
9.93 | 15.1 | > 20 | 9.8 | COc1ccc(-n2c(C)nc3cnc4cc(-c5ccc6[nH]ccc6c5)c(OC)cc4c32)cc1
17.9 | > 20 | > 20 | 11 | COc1ccc(-n2c(C)nc3cnc4cc(-c5ccc(OC)c(CO)c5)c(OC)cc4c32)cc1
> 20 | > 20 | > 20 | 9.8 | COc1ccc(-n2c(C)nc3cnc4cc(-c5ccc(N)cc5)c(OC)cc4c32)cc1
> 20 | > 20 | > 20 | > 20 | COc1ccc(-n2c(C)nc3cnc4cc(-c5cnc(N)nc5)c(OC)cc4c32)cc1
18.6 | 4.71 | > 20 | 13 | COc1ccc(-n2c(C)nc3cnc4cc(-c5cnc6[nH]ccc6c5)c(OC)cc4c32)cc1
> 20 | > 20 | > 20 | 12 | COc1ccc(-n2c(C)nc3cnc4cc(-c5cc(C)cc(C)c5)c(OC)cc4c32)cc1
4.41 | > 20 | 15.6 | 12.5 | COc1ccc(-c2cc3ncc4nc(C)n(-c5ccc(OC)cc5)c4c3cc2OC)cc1
2.21 | > 20 | 9.7 | 13.7 | COc1cc2c(cc1-c1ccc3[nH]ccc3c1)ncc1nc(C)n([C@@H](C)c3ccccc3)c12
9.71 | > 20 | > 20 | 3.23 | COc1ccc(-n2c(C)nc3cnc4cc(-c5cnn(C)c5)c(OC)cc4c32)cc1
13.1 | 5.46 | 4.12 | 4.84 | COc1ccc(-c2cc3ncc4nc(C)n([C@@H](C)c5ccccc5)c4c3cc2OC)cc1
10.6 | > 20 | > 20 | 3.12 | COc1ccc(-n2c(C)nc3cnc4cc(-c5c(C)n[nH]c5C)c(OC)cc4c32)cc1
11.1 | > 20 | > 20 | 12.4 | COc1ccc(-n2c(C)nc3cnc4cc(-c5ccc(C(C)=O)cc5)c(OC)cc4c32)cc1
4.96 | 15 | 18.3 | 2.44 | COc1ccc(-n2c(C)nc3cnc4cc(-c5ccc(O)cc5)c(OC)cc4c32)cc1
11 | > 20 | > 20 | > 20 | COc1ccc(-n2c(C)nc3cnc4cc(-c5ccc(F)cc5)c(OC)cc4c32)cc1
5.39 | > 20 | > 20 | 7.9 | COc1ccc(-n2c(C)nc3cnc4cc(-c5ccc(C#N)cc5)c(OC)cc4c32)cc1
> 20 | > 20 | > 20 | 5.67 | COc1ccc(-n2c(C)nc3cnc4cc(-c5cnccc5OC)c(OC)cc4c32)cc1
5.33 | 17.2 | > 20 | 5.8 | COc1ccc(-n2c(C)nc3cnc4cc(-c5ccc6nc[nH]c6c5)c(OC)cc4c32)cc1
4.63 | > 20 | 12.8 | 2.34 | COc1cc2c(cc1-c1c(C)noc1C)ncc1nc(C)n(-c3ccc(C#N)cc3)c12
> 20 | > 20 | > 20 | 6.34 | COc1ccc(-n2c(C)nc3cnc4cc(-c5ccc(C)cc5)c(OC)cc4c32)cc1
6.13 | 15.6 | 6.85 | 10.1 | COc1cc2c(cc1-c1cnc3[nH]ccc3c1)ncc1nc(C)n(C(C)c3ccccc3)c12 (stereo not given)
9.21 | 11.2 | 11.3 | 5.78 | COc1ccc(-n2c(C)nc3cnc4cc(-c5ccc(N)nc5)c(OC)cc4c32)cc1
1.22 | > 20 | 11.6 | 9.3 | COc1ccc(-n2c(C)nc3cnc4cc(-c5c(C)noc5C)c(OC)cc4c32)cc1
5.64 | > 20 | > 20 | > 20 | COc1ccc(-n2c(C)nc3cnc4cc(-c5ccc(C(F)(F)F)cc5)c(OC)cc4c32)cc1
